Test system: human prostate cancer cell line PC3
Assay: Proliferation of PC3 cells after 4 days exposure (BrdU incorporation and WST-1 assays)
Assay type: cell-based
Details: PC-3, 96 h, component alone, PC3 cells exposed for 4 days
Experimental: Stock solutions were prepared as follows: Genistein and silymarin were dissolved in ethanol. Daidzein and equol were dissolved in dimethyl sulfoxide (DMSO). Lycopene was dissolved in 0.02M HCl
The PC3 cell line (American Type Culture Collection, Mannassas, USA), a highly resistant prostate cancer cell line originating from a metastasis lesion of bone, was maintained as monolayer cultures in RPMI medium (Gibco, Life technologies BV, Breda, Netherlands) supplemented with 5% FCS (Gibco). The cells were grown mycoplasm free in plastic tissue culture flasks (Falcon, Micronic, Lelystad, Netherlands). Cultures were kept in a 5% CO2 humidified atmosphere, at a temperature of 37° C. Media were replaced every 2 or 3 days, and cells were subcultured at weekly intervals using a 0.05% trypsin and 0.01% EDTA.
The PC3 cells were seeded into flat-bottomed 96-well tissue culture treated plates (Falcon, Micronic, Lelystad, Netherlands) at a density of 16000 cells per well. After 24 h incubation, vehicle controls, test components or combinations of the test components were added to the medium (20 μl added to 200 μl medium in well). The components were tested in combination to determine additional or synergistic effects. PC3 cells were exposed for 4 days.
Cell proliferation was quantified by measuring the incorporation of 5-bromo-2′-deoxyuridine (BrdU) during DNA synthesis and by cleavage of tetrazolium salt (WST-1) in viable cells by mitochondrial dehydrogenases. The calorimetric BrdU (immunoassay) and colorimetric WST-1 assay were performed in accordance with the manufacturer's instructions (Roche Diagnostics Mannheim, Germany). Briefly, BrdU-assay: After the exposure period, the cells were treated with BrdU-labeling solution for 3 hours. After labeling, cells were washed with PBS, fixed for 30 minutes and washed again with PBS. After 90 minutes incubation with the anti-BrdU-POD working solution, the cells were washed 3 times. After addition of the substrate, the reaction was stopped with H2SO4. The absorbance was measured at 450 nm with a reference wavelength at 650 nm. WST-1 assay: After the exposure period, the cells were washed with PBS and treated with WST-1 diluted in medium (1:10). After 3 hours incubation, the absorbance was measured at 450 nm with a reference at 595 nm.

O=c1c(-c2ccc(O)cc2)coc2cc(O)cc(O)c12 [Genistein, genistein] gave an inhibition at 27 µg/mL (27 μg/ml, read-out: inhibition of proliferation of human prostate cancer cell line PC3 (mean±s.e.)) of 20.2 ± 4.6%.
Oc1ccc([C@H]2COc3cc(O)ccc3C2)cc1 [equol] showed an inhibition at 26 µg/mL (26 μg/ml, read-out: inhibition of proliferation of human prostate cancer cell line PC3 (mean±s.e.)) of 30.1 ± 4.4%.
In the case of O=c1c(-c2ccc(O)cc2)coc2cc(O)ccc12 [daidzein], the inhibition at 25 µg/mL (25 μg/ml, stated as not significant, read-out: inhibition of growth of the PC3 cells) is reported as 10 ± 6%.
CC(C)=CCC/C(C)=C/C=C/C(C)=C/C=C/C(C)=C/C=C/C=C(C)/C=C/C=C(C)/C=C/C=C(\C)CCC=C(C)C [lycopene] showed an inhibition at 53 µg/mL (53 μg/ml, stated as not significant, read-out: inhibition of growth of the PC3 cells) of 7.3 ± 2.7%.

Source: US20040259815A1, “Anti-proliferative composition” (priority 2001, published 2004)
